Experiments:
AZD7648 = compound: Cc1cc2ncnn2cc1Nc1ncc2c(n1)n(C1CCOCC1)c(=O)n2C [AZD7648]; details: max 10 µM
Method in brief: (§1)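 Cancer cell lines were plated in 1536-well plates in 7.5 μl of DMEM/F12 or RPMI with 10% FBS and kept 24 hours at 37°C and 5% CO2 before 72 hours of dosing, with final DMSO typically 0.2%. CellTiter-Glo 2.0 luminescence measured viability, scaled between blank-well and DMSO-well means. Dose responses were fitted to a two-parameter logistic curve with a non-linear mixed effects model. This fit gives the single-agent IC50.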

Venetoclax = compound: CC1(C)CCC(CN2CCN(c3ccc(C(=O)NS(=O)(=O)c4ccc(NCC5CCOCC5)c([N+](=O)[O-])c4)c(Oc4cnc5[nH]ccc5c4)c3)CC2)=C(c2ccc(Cl)cc2)C1 [Venetoclax]; details: max 1 µM
Method in brief: as §1

Alisertib = compound: COc1cc(Nc2ncc3c(n2)-c2ccc(Cl)cc2C(c2c(F)cccc2OC)=NC3)ccc1C(=O)O [Alisertib]; details: max 10 µM
Method in brief: as §1

Prexasertib = compound: COc1cccc(OCCCN)c1-c1cc(Nc2cnc(C#N)cn2)n[nH]1 [Prexasertib]; details: max 1 µM
Method in brief: as §1

AZD2811 = compound: CCN(CCO)CCCOc1ccc2c(Nc3cc(CC(=O)Nc4cccc(F)c4)[nH]n3)ncnc2c1 [AZD2811]; details: max 1 µM
Method in brief: as §1

AZD6738 = compound: C[C@@H]1COCCN1C2=NC(=NC(=C2)C3(CC3)[S@](=N)(=O)C)C4=C5C=CNC5=NC=C4 [AZD6738]; details: max 10 µM
Method in brief: as §1

MK-2206 = compound: NC1(c2ccc(-c3nc4ccn5c(=O)[nH]nc5c4cc3-c3ccccc3)cc2)CCC1 [MK-2206]; details: max 10 µM
Method in brief: as §1

AZD1775 = compound: C=CCn1c(=O)c2cnc(Nc3ccc(N4CCN(C)CC4)cc3)nc2n1-c1cccc(C(C)(C)O)n1 [AZD1775]; details: max 3 µM
Method in brief: as §1

Gefitinib = compound: COc1cc2ncnc(Nc3ccc(F)c(Cl)c3)c2cc1OCCCN1CCOCC1 [Gefitinib]; details: max 10 µM
Method in brief: as §1

5-Fluorouracil = compound: O=c1[nH]cc(F)c(=O)[nH]1 [5-Fluorouracil]; details: max 20 µM
Method in brief: as §1

Dasatinib = compound: CC1=C(C(=CC=C1)Cl)NC(=O)C2=CN=C(S2)NC3=CC(=NC(=N3)C)N4CCN(CC4)CCO [Dasatinib]; details: max 2 µM
Method in brief: as §1

Gemcitabine = compound: Nc1ccn([C@@H]2O[C@H](CO)[C@@H](O)C2(F)F)c(=O)n1 [Gemcitabine]; details: max 0.3 µM
Method in brief: as §1

Trametinib = compound: CC(=O)Nc1cccc(-n2c(=O)n(C3CC3)c(=O)c3c(Nc4ccc(I)cc4F)n(C)c(=O)c(C)c32)c1 [Trametinib]; details: max 1 µM
Method in brief: as §1

Crizotinib = compound: C[C@@H](Oc1cc(-c2cnn(C3CCNCC3)c2)cnc1N)c1c(Cl)ccc(F)c1Cl [Crizotinib]; details: max 10 µM
Method in brief: as §1

AZD4320 = compound: CN(CC[C@H](CSC1=CC=CC=C1)NC2=C(C=C(C=C2)S(=O)(=O)NC(=O)C3=CC=C(C=C3)N4CCC(CC4)[C@H](C5=CC=CC=C5C6=CC=C(C=C6)Cl)O)S(=O)(=O)C(F)(F)F)CCO [AZD4320]; details: max 1 µM
Method in brief: as §1

SG3199 = compound: CC1=CN2[C@@H](C1)C=NC3=CC(=C(C=C3C2=O)OC)OCCCCCOC4=C(C=C5C(=C4)N=C[C@@H]6CC(=CN6C5=O)C)OC [SG3199]; details: max 0.001 µM
Method in brief: as §1

Palbociclib = compound: CC(=O)c1c(C)c2cnc(Nc3ccc(N4CCNCC4)cn3)nc2n(C2CCCC2)c1=O [Palbociclib]; details: max 10 µM
Method in brief: as §1

AZD1390 = compound: CC(C)n1c(=O)n(C)c2cnc3cc(F)c(-c4ccc(OCCCN5CCCCC5)nc4)cc3c21 [AZD1390]; details: max 0.3 µM
Method in brief: as §1

[1] = compound: O=C(Nc1ccc2[nH]nc(-c3ccncc3)c2c1)[C@@H]1CCN(CC(=O)N2CCN(c3ccc(-c4ncccn4)cc3)CC2)C1; details: max 5 µM
Method in brief: as §1

SN-38 = compound: CCc1c2c(nc3ccc(O)cc13)-c1cc3c(c(=O)n1C2)COC(=O)[C@]3(O)CC [SN-38]; details: max 0.3 µM
Method in brief: as §1

Etoposide = compound: COc1cc([C@@H]2c3cc4c(cc3[C@@H](O[C@@H]3O[C@@H]5CO[C@@H](C)O[C@H]5[C@H](O)[C@H]3O)[C@H]3COC(=O)[C@H]23)OCO4)cc(OC)c1O [Etoposide]; details: max 10 µM
Method in brief: as §1

Paclitaxel = compound: CC(=O)O[C@H]1C(=O)[C@@]2(C)[C@H]([C@H](OC(=O)c3ccccc3)[C@]3(O)C[C@H](OC(=O)[C@H](O)[C@@H](NC(=O)c4ccccc4)c4ccccc4)C(C)=C1C3(C)C)[C@]1(OC(C)=O)CO[C@@H]1C[C@@H]2O [Paclitaxel]; details: max 3 µM
Method in brief: as §1

AZD0156 = compound: CN(C)CCCOc1ccc(-c2ccc3ncc4c(c3c2)n(C2CCOCC2)c(=O)n4C)cn1 [AZD0156]; details: max 3 µM
Method in brief: as §1

Selumetinib = compound: Cn1cnc2c(F)c(Nc3ccc(Br)cc3Cl)c(C(=O)NOCCO)cc21 [Selumetinib]; details: max 10 µM
Method in brief: as §1

AZD8186 = compound: C[C@@H](Nc1cc(F)cc(F)c1)c1cc(C(=O)N(C)C)cc2c(=O)cc(N3CCOCC3)oc12 [AZD8186]; details: max 10 µM
Method in brief: as §1

Doxorubicin = compound: COc1cccc2c1C(=O)c1c(O)c3c(c(O)c1C2=O)C[C@@](O)(C(=O)CO)C[C@@H]3O[C@H]1C[C@H](N)[C@H](O)[C@H](C)O1 [Doxorubicin]; details: max 1 µM
Method in brief: as §1

Olaparib = compound: O=C(c1cc(Cc2n[nH]c(=O)c3ccccc23)ccc1F)N1CCN(C(=O)C2CC2)CC1 [Olaparib]; details: max 10 µM
Method in brief: as §1

Carboplatin = compound: C1CC(C1)(C(=O)[O-])C(=O)[O-].N.N.[Pt+2] [Carboplatin]; details: max 10 µM
Method in brief: as §1

Savolitinib = compound: C[C@@H](c1ccc2nccn2c1)n1nnc2ncc(-c3cnn(C)c3)nc21 [Savolitinib]; details: max 1 µM
Method in brief: as §1

Lapatinib = compound: CS(=O)(=O)CCNCc1ccc(-c2ccc3ncnc(Nc4ccc(OCc5cccc(F)c5)c(Cl)c4)c3c2)o1 [Lapatinib]; details: max 10 µM
Method in brief: as §1

AZD5153 = compound: COc1nnc2ccc(N3CCC(c4ccc(OCCN5CCN(C)C(=O)[C@H]5C)cc4)CC3)nn12 [AZD5153]; details: max 1 µM
Method in brief: as §1

AZD5363 = compound: C1CN(CCC1(C(=O)N[C@@H](CCO)C2=CC=C(C=C2)Cl)N)C3=NC=NC4=C3C=CN4 [AZD5363]; details: max 10 µM
Method in brief: as §1

AZD5991 = compound: Cc1c2c(nn1C)CSCc1cc(n(C)n1)CSc1cc(c3ccccc3c1)OCCCc1c(C(=O)O)n(C)c3c-2c(Cl)ccc13 [AZD5991]; details: max 1 µM
Method in brief: as §1

Taselisib = compound: Cc1nc(-c2cn3c(n2)-c2ccc(-c4cnn(C(C)(C)C(N)=O)c4)cc2OCC3)n(C(C)C)n1 [Taselisib]; details: max 10 µM
Method in brief: as §1

SRA737 = compound: N#Cc1cnc(Nc2cc(NC[C@H]3CNCCO3)c(C(F)(F)F)cn2)cn1 [SRA737]; details: max 10 µM
Method in brief: as §1

| Cell Line | IC50, cell viability 72 h (AZD7648) [µM] | IC50, cell viability 72 h (Venetoclax) [µM] | IC50, cell viability 72 h (Alisertib) [µM] | IC50, cell viability 72 h (Prexasertib) [µM] | IC50, cell viability 72 h (AZD2811) [µM] | IC50, cell viability 72 h (AZD6738) [µM] | IC50, cell viability 72 h (MK-2206) [µM] | IC50, cell viability 72 h (AZD1775) [µM] | IC50, cell viability 72 h (Gefitinib) [µM] | IC50, cell viability 72 h (5-Fluorouracil) [µM] | IC50, cell viability 72 h (Dasatinib) [µM] | IC50, cell viability 72 h (Gemcitabine) [µM] | IC50, cell viability 72 h (Trametinib) [µM] | IC50, cell viability 72 h (Crizotinib) [µM] | IC50, cell viability 72 h (AZD4320) [µM] | IC50, cell viability 72 h (SG3199) [µM] | IC50, cell viability 72 h (Palbociclib) [µM] | IC50, cell viability 72 h (AZD1390) [µM] | IC50, cell viability 72 h [1] [µM] | IC50, cell viability 72 h (SN-38) [µM] | IC50, cell viability 72 h (Etoposide) [µM] | IC50, cell viability 72 h (Paclitaxel) [µM] | IC50, cell viability 72 h (AZD0156) [µM] | IC50, cell viability 72 h (Selumetinib) [µM] | IC50, cell viability 72 h (AZD8186) [µM] | IC50, cell viability 72 h (Doxorubicin) [µM] | IC50, cell viability 72 h (Olaparib) [µM] | IC50, cell viability 72 h (Carboplatin) [µM] | IC50, cell viability 72 h (Savolitinib) [µM] | IC50, cell viability 72 h (Lapatinib) [µM] | IC50, cell viability 72 h (AZD5153) [µM] | IC50, cell viability 72 h (AZD5363) [µM] | IC50, cell viability 72 h (AZD5991) [µM] | IC50, cell viability 72 h (Taselisib) [µM] | IC50, cell viability 72 h (SRA737) [µM] |
| --- | --- | --- | --- | --- | --- | --- | --- | --- | --- | --- | --- | --- | --- | --- | --- | --- | --- | --- | --- | --- | --- | --- | --- | --- | --- | --- | --- | --- | --- | --- | --- | --- | --- | --- | --- |
| Saos-2 (Osteosarcoma) | > 10 | > 1 | 9.26 | 0.102 | 0.971 | > 10 | > 10 | 1.23 | > 10 | > 20 | > 2 | 0.0364 | > 1 | 5.11 | > 1 | > 0.001 | > 10 | > 0.3 | > 5 | 0.0109 | 3.65 | 0.0446 | > 3 | > 10 | > 10 | 0.556 | > 10 | > 10 | > 1 | > 10 | 0.887 | > 10 | > 1 | 3.21 | > 10 |
| CAL-39 (Other Solid Carcinomas) | > 10 | > 1 | 0.42 | > 1 | > 1 | > 10 | > 10 | 0.651 | 0.737 | > 20 | 0.0739 | 0.0252 | 0.059 | 4.69 | > 1 | > 0.001 | > 10 | > 0.3 | 0.581 | 0.0222 | 9.07 | 0.00679 | > 3 | 1.02 | 4.77 | > 1 | > 10 | > 10 | > 1 | 0.377 | 0.287 | > 10 | > 1 | 0.142 | > 10 |

Reference: the supplement of paper PMC11061612
